BindingDB's records for doi:10.1016/j.bmcl.2006.12.077 (Glaxosmithkline, 2007)

Target: Vascular endothelial growth factor receptor 2 (Homo sapiens, UniProt P35968)
Test: Homogeneous Time-Resolved Fluorescence (HTRF) Enzyme Assay
Settings: pH 7.5; 22 °C
Description: The assay uses purified GST-Tie-2 or GST-6x His-VEGFR2 interacting with biotinylated peptide substrates. HTRF is based on the proximity of europium cryptate (donor fluorophore)-labeled antiphosphotyrosine and streptavidin labeled with APC (allophycocyanin), which have been brought together by a binding reaction. When the two entities come into close proximity and upon excitation, energy transfer occurs and APC re-emits at 665 nm. The IC50 values for inhibitors were determined by a four-parameter sigmoidal curve fit.

Chain of Vascular endothelial growth factor receptor 2 (P35968 whole entry): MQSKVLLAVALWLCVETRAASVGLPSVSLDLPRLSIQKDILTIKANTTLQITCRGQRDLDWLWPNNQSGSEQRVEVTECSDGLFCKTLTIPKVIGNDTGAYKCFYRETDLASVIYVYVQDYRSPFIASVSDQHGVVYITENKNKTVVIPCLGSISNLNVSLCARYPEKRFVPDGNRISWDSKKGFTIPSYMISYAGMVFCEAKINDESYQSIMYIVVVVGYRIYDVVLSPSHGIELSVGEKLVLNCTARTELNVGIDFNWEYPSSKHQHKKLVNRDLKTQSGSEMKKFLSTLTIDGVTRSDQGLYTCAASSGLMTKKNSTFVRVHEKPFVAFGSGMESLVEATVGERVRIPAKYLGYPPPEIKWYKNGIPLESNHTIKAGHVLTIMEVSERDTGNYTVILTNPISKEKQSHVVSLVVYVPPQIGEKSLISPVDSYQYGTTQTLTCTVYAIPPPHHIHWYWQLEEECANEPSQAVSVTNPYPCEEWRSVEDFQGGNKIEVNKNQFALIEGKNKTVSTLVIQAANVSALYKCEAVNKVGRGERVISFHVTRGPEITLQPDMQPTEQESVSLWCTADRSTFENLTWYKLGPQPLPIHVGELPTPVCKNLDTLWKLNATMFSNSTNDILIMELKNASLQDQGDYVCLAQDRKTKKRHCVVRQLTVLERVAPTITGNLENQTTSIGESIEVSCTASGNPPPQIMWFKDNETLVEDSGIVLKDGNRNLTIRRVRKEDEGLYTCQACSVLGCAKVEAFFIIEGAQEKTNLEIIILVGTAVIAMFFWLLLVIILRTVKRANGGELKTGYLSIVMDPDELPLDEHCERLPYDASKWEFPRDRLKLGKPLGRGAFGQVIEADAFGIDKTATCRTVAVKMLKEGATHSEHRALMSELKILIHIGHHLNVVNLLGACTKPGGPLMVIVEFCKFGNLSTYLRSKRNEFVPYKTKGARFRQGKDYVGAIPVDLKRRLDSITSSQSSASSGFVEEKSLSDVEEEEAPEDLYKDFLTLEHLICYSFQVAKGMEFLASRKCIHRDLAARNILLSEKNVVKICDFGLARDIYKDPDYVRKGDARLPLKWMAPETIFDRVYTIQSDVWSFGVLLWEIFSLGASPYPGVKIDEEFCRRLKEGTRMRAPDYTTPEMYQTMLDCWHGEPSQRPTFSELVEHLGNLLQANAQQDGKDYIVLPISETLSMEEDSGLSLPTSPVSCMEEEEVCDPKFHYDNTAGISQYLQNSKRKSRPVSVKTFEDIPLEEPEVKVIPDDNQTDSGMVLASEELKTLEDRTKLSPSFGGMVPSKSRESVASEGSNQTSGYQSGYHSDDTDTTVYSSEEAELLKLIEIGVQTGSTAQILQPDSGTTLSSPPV

Row | IC50 [nM] | SMILES
1 | 138 | Nc1ncnc2occ(-c3ccc(NC(=O)Nc4cc(C(F)(F)F)cc(C(F)(F)F)c4)cc3)c12 [3-(4-{4-aminofuro[2,3-d]pyrimidin-5-yl}phenyl)-1-[3,5-bis(trifluoromethyl)phenyl]urea]
2 | 15.5 | COc1ccc(-c2oc3ncnc(N)c3c2-c2ccc(NC(=O)Nc3cc(C(F)(F)F)ccc3F)cc2)cc1 [3-{4-[4-amino-6-(4-methoxyphenyl)furo[2,3-d]pyrimidin-5-yl]phenyl}-1-[2-fluoro-5-(trifluoromethyl)phenyl]urea]
